Measured values: patent US4119722A, “Method for control of fungi using 4-halo-5-aryl-1,2,3,-dithiazoles” (Chevron Research Company, priority 1977, dated 1978)

How the values were obtained:
Fusarium moniloforma = test: Mycelia Inhibition; assay type: cell-based; details: 25° C., 24 hours
Description: (§1) The compounds of the present invention were evaluated for fungicidal effectiveness by means of a mycelial inhibition test. This test is designed to measure the fungitoxic acitvity of fungicidal chemicals in terms of their degree of inhibition of mycelium growth. Each compound to be tested was dissolved in acetone to 500 ppm concentration. Paper strips were innoculated with the particular mycelium growth by covering the paper with a potato dextrose broth culture of mycelial suspension. The innoculated papers were then placed on potato dextrose agar plates and sprayed by means of a micro sprayer with the fungicidal solution. The treated paper strips were incubated at 25° C. and data is taken after 24 hours. Fungicidal activities are measured by a zone of inhibited mycelial growth from the center of the paper strip. The effectiveness of the compounds tested for fungicidal activity is reported in Table VI in terms of the microgram/cm^2 for 99% control of the fungus.

Rhizoctonia solani = test: Mycelia Inhibition; assay type: cell-based; details: 25° C., 24 hours
Description: as §1

Aspergillus niger = test: Mycelia Inhibition; assay type: cell-based; details: 25° C., 24 hours
Description: as §1

[1] = tested on: Watergrass (Echinochloa Crusgalli); test: Post-emergent herbicidal test; assay type: in vivo; details: Echinochloa crus-galli, post-emergence, 504 h, 33 mcg/cm^2, 3 weeks, scale 0 (no phytotoxicity) to 100 (complete kill), read-out: Herbicidal Effectiveness (W)
Description: (§2) Post-emergent herbicidal tests with representative compounds of this invention were made using the following method.
(§3) An acetone solution of the test compound was prepared by mixing 750 mg of the compound, 220 mg of a nonionic surfactant and 25 ml of acetone. This solution was added to approximately 125 ml of water containing 156 mg of surfactant.
(§4) This test solution was uniformly sprayed on 2 similar pots of 24-day-old plants (approximately 15 to 25 plants per pot) at a dose of 33 mcg/cm^2. After the plants had dried, they were placed in a greenhouse and then watered intermittently at their bases, as needed. The plants were observed periodically for phytotoxic effects and physiological and morphological responses to the treatment. After 3 weeks, the herbicidal effectiveness of the compound was rated based on these observations. A 0-to-100 scale was used, 0 representing no phytotoxicity and 100 representing complete kill.

[2] = tested on: Mustard (Brassica arvensis); test: Post-emergent herbicidal test; assay type: in vivo; details: post-emergence, 504 h, 33 mcg/cm^2, 3 weeks, scale 0 (no phytotoxicity) to 100 (complete kill), read-out: Herbicidal Effectiveness (L)
Description: as §2, §3, §4

[3] = tested on: Pigweed (Amaranthus retroflexus); test: Post-emergent herbicidal test; assay type: in vivo; details: post-emergence, 504 h, 33 mcg/cm^2, 3 weeks, scale 0 (no phytotoxicity) to 100 (complete kill), read-out: Herbicidal Effectiveness
Description: as §2, §3, §4

Wild Oats (Avena fatua) = test: Post-emergent herbicidal test; assay type: in vivo; details: post-emergence, 504 h, 33 mcg/cm^2, 3 weeks, scale 0 (no phytotoxicity) to 100 (complete kill), read-out: Herbicidal Effectiveness (O)
Description: as §2, §3, §4

[4] = tested on: Crabgrass (Digitaria sanguinalis); test: Post-emergent herbicidal test; assay type: in vivo; details: post-emergence, 504 h, 33 mcg/cm^2, 3 weeks, scale 0 (no phytotoxicity) to 100 (complete kill), read-out: Herbicidal Effectiveness (C)
Description: as §2, §3, §4

[5] = tested on: Lambsquarter (Chenopodium album); test: Post-emergent herbicidal test; assay type: in vivo; details: post-emergence, 504 h, 33 mcg/cm^2, 3 weeks, scale 0 (no phytotoxicity) to 100 (complete kill), read-out: Herbicidal Effectiveness (P)
Description: as §2, §3, §4

[6] = tested on: mite eggs (Tetramuchus urticae); test: Mite control test, mite eggs; assay type: in vivo; details: 40-ppm leaf dip, egg mortality (non-hatching eggs) 7 days after treatment
Description: (§5) Compounds of the invention were tested for the control mites and mite eggs by the following procedure. Pinto bean leaves were invested with two spotted-mites (Tetramuchus urticae). The mites were then allowed to lay eggs on the leaves. After 48 hours, the leaves were dipped into a water/acetone solution containing a small amount of a non-ionic surfactant and 40-ppm of the test compound. The treated leaves were then maintained at 85° F. One day after treatment, the mortality of adult mites was determined, and 7 days after treatment, the egg mortality (non-hatching eggs) was determined.

Erysiphe polygoni = test: Powdery Mildew control on bean seedlings; assay type: in vivo; details: 250-ppm spray, about 10 days
Source text: The powdery mildew test was made using bean seedlings (var. Bountiful) with well-developed primary leaves. The pathogen was Erysiphe polygoni. The bean seedlings were sprayed with a 250-ppm solution of the test compound in an acetone-water mixture containing a nonionic emulsifer. The treated plants were inoculated one day after spray application of the test compound with the pathogen. […] The rate of infection on the leaves was made after about 10 days. The percent disease control provided by a given test compound was based on the disease reduction relative to untreated check plants.

[7] = tested on: two spotted-mites (Tetramuchus urticae); test: Mite control test, adult mites; assay type: in vivo; details: 40-ppm leaf dip, adult mortality one day after treatment; 1440 min
Description: as §5

Botrytis cinerea [8] = test: Botrytis cinerea control on detached horsebean leaves; assay type: in vivo; details: 40-ppm solution, dipped horsebean leaves, 3 to 5 days, 23.5° C
Description: The leaves were dipped into a 40-ppm solution of the test compound in acetone and water containing a small amount of a nonionic emulsifier, then taken out and placed in a petri plate lined with two pieces of filter paper. The leaves were allowed to dry while the filter paper was kept moist by adding water as required. The treated leaves were then inoculated with the spores of Botrytis cinerea fungus grown on potato dextrose agar. The plate was covered after inoculation and kept at 23.5° C. The filter-paper lining of the plate was kept saturated with water throughout the test. The rate of disease incidence was determined in 3 to 5 days, when the disease symptoms were fully evident on non-treated check leaves. The percentage disease control provided by the test compound was calculated as the percentage disease reduction based on the non-treated check leaves.

Alternaria solani = test: Tomato Early Blight control; assay type: in vivo; details: 250-ppm spray, tomato seedlings, inoculated 1 day later
Description: Compounds of the invention were tested for the control of the Tomato Early Blight organism, Alternaria solani conidia. […] The tomato plans were sprayed with a 250-ppm solution of the test compound in an acetone-and-water solution containing a small amount of a non-ionic emulsifier. […] Percent disease control was based on the percent disease development on untreated check plants.

Botrytis cinerea [9] = test: Mycelia Inhibition; assay type: cell-based; details: 25° C., 24 hours
Description: as §1

Phytophthora infestans = test: whole plant or invertebrate; assay type: in vivo; details: in Solanum lycopersicum, 168 h, read-out: Tomato Late Blight, % Control
Septoria apii = assay type: in vivo; details: sprayed celery plants; concentration not given

SMILES	Mycelia Inhibition, for 99% control (F) (Fusarium moniloforma) [micrograms/cm^2]	Mycelia Inhibition, for 99% control (R) (Rhizoctonia solani) [micrograms/cm^2]	Mycelia Inhibition, for 99% control (A) (Aspergillus niger) [micrograms/cm^2]	pest or weed control at 33 µg/cm2 [1] [%]	pest or weed control at 33 µg/cm2 [2] [%]	pest or weed control at 33 µg/cm2 [3] [%]	pest or weed control at 33 µg/cm2 (Wild Oats (Avena fatua)) [%]	pest or weed control at 33 µg/cm2 [4] [%]	pest or weed control at 33 µg/cm2 [5] [%]	Mite Eggs Control, % [6] [%]	Powdery Mildew % Control (Erysiphe polygoni) [%]	Mite Control, % [7] [%]	percentage disease control (Botrytis cinerea) (Botrytis cinerea [8]) [%]	Tomato Early Blight, % Control (Alternaria solani) [%]	Mycelia Inhibition, for 99% control (B) (Botrytis cinerea [9]) [micrograms/cm^2]	pest or weed control at 250 µg/mL (Phytophthora infestans) [%]	Celery Late Blight, % Control (Septoria apii) [%]
Clc1cc(Cl)cc(N=c2ssnc2Cl)c1 [Compound 3]	> 1.7	0.98	> 1.7	85	100	100	35	55	100	85	76	90					
Cc1cc(Cl)ccc1N=c1ssnc1Cl [Compound 4, 4-chloro-5-(2-methyl-4-chlorophenylimino)-1,2,3-dithiazole]	> 1.7	0.63	> 1.7	30	70	70	20	20	85	100	100	94	92				
Clc1ccc(N=c2ssnc2Cl)c(Cl)c1 [Compound 6]				55	100	100	30	35	95	0		100		56			
Cc1ccc(N=c2ssnc2Cl)c(C)c1 [Compound 13]	> 1.7	> 1.7	1.1	0	50	35	0	0	35	30		0		44	> 1.7	63	
O=[N+]([O-])c1ccc(Oc2cccc(N=c3ssnc3Cl)c2)cc1 [Compound 18]	> 1.7	0.45	> 1.7											44	> 1.7		64
Cc1c(Cl)cccc1N=c1ssnc1Cl [Compound 21]	> 1.7	1.1	> 1.7	15	45	50	0	0	20	99	100	90		44	1.3	63	
Fc1ccccc1N=c1ssnc1Cl [Compound 22]	1.3	0.73	1.4	20	85	70	0	0	70	39		0		50			80
N#Cc1ccc(N=c2ssnc2Cl)cc1 [Compound 23]	1.4	0.6	> 1.7											90	0.78	97	63
Cc1ccc(Cl)cc1N=c1ssnc1Cl [Compound 28]				65	100	100	45	20	95	85	90	85					
